Measurements reported in ChEMBL document CHEMBL2074554, “Expression of the apical conjugate export pump, Mrp2, in the polarized hepatoma cell line, WIF-B” (Hepatology, 1998).
Blank lines part the entries; values can stand above or below the molecule they belong to.

Key:
[1] = biological target: ABCC2 (MRP2; ATP-binding cassette sub-family C member 2) (Rattus norvegicus, UniProt Q63120); assay: TP_TRANSPORTER: inhibition of Fluo-3 secretion into apical vacuoles (Fluo-3: 1 uM, PSC 833: 50 uM) in WIF-B cells; type: functional, cell-based, WIF-B cell; conditions: probe Fluo-3 (1 uM)
[2] = biological target: ATP-binding cassette sub-family C member 2 (Rattus norvegicus, UniProt Q63120); assay: TP_TRANSPORTER: inhibition of Fluo-3 uptake (Fluo-3: 4.4 uM, PSC 833: 10 uM) in bile canalicular membrane vesicles from Wistar rat; type: functional, cell membranes, Bile canalicular membrane vesicle
[3] = substrate: Cc1ccc(N(CC(=O)O)CC(=O)O)c(OCCOc2cc(-c3c4cc(Cl)c(=O)cc-4oc4cc(O)c(Cl)cc34)ccc2N(CC(=O)O)CC(=O)O)c1; assay: TP_TRANSPORTER: uptake in bile canalicular membrane vesicles from Wistar/TR- rat; type: functional, cell membranes, Bile canalicular membrane vesicle

inhibition at 50 µM [1]: 50%
Activity [2]: is not an inhibitor [-]
Molecule: C/C=C/C[C@@H](C)C(=O)[C@H]1C(=O)N[C@@H](C(C)C)C(=O)N(C)CC(=O)N(C)[C@@H](CC(C)C)C(=O)N[C@@H](C(C)C)C(=O)N(C)[C@@H](CC(C)C)C(=O)N[C@@H](C)C(=O)N[C@H](C)C(=O)N(C)[C@@H](CC(C)C)C(=O)N(C)[C@@H](CC(C)C)C(=O)N(C)[C@@H](C(C)C)C(=O)N1C [VALSPODAR]

B1: ATP-binding cassette sub-family C member 2 (Rattus norvegicus) (protein)
chain: MDKFCNSTFWDLSLLESPEADLPLCFEQTVLVWIPLGFLWLLAPWQLYSVYRSRTKRSSITKFYLAKQVFVVFLLILAAIDLSLALTEDTGQATVPPVRYTNPILYLCTWLLVLAVQHSRQWCVRKNSWFLSLFWILSVLCGVFQFQTLIRALLKDSKSNMAYSYLFFVSYGFQIVLLILTAFSGPSDSTQTPSVTASFLSSITFSWYDRTVLKGYKHPLTLEDVWDIDEGFKTRSVTSKFEAAMTKDLQKARQAFQRRLQKSQRKPEATLHGLNKKQSQSQDVLVLEEAKKKSEKTTKDYPKSWLIKSLFKTFHVVILKSFILKLIHDLLVFLNPQLLKLLIGFVKSSNSYVWFGYICAILMFAVTLIQSFCLQSYFQHCFVLGMCVRTTVMSSIYKKALTLSNLARKQYTIGETVNLMSVDSQKLMDATNYMQLVWSSVIQITLSIFFLWRELGPSILAGVGVMVLLIPVNGVLATKIRNIQVQNMKNKDKRLKIMNEILSGIKILKYFAWEPSFQEQVQGIRKKELKNLLRFGQLQSLLIFILQITPILVSVVTFSVYVLVDSANVLNAEKAFTSITLFNILRFPLSMLPMVTSSILQASVSVDRLERYLGGDDLDTSAIRRVSNFDKAVKFSEASFTWDPDLEATIQDVNLDIKPGQLVAVVGTVGSGKSSLVSAMLGEMENVHGHITIQGSTAYVPQQSWIQNGTIKDNILFGSEYNEKKYQQVLKACALLPDLEILPGGDMAEIGEKGINLSGGQKQRVSLARAAYQDADIYILDDPLSAVDAHVGKHIFNKVVGPNGLLAGKTRIFVTHGIHFLPQVDEIVVLGKGTILEKGSYRDLLDKKGVFARNWKTFMKHSGPEGEATVNNDSEAEDDDDGLIPTMEEIPEDAASLAMRRENSLRRTLSRSSRSSSRRGKSLKNSLKIKNVNVLKEKEKEVEGQKLIKKEFVETGKVKFSIYLKYLQAVGWWSILFIILFYGLNNVAFIGSNLWLSAWTSDSDNLNGTNNSSSHRDMRIGVFGALGLAQGICLLISTLWSIYACRNASKALHGQLLTNILRAPMRFFDTTPTGRIVNRFSGDISTVDDLLPQTLRSWMMCFFGIAGTLVMICMATPVFAIIIIPLSILYISVQVFYVATSRQLRRLDSVTKSPIYSHFSETVTGLPIIRAFEHQQRFLAWNEKQIDINQKCVFSWITSNRWLAIRLELVGNLVVFCSALLLVIYRKTLTGDVVGFVLSNALNITQTLNWLVRMTSEAETNIVAVERISEYINVENEAPWVTDKRPPADWPRHGEIQFNNYQVRYRPELDLVLKGITCNIKSGEKVGVVGRTGAGKSSLTNCLFRILESAGGQIIIDGIDVASIGLHDLRERLTIIPQDPILFSGSLRMNLDPFNKYSDEEVWRALELAHLRSFVSGLQLGLLSEVTEGGDNLSIGQRQLLCLGRAVLRKSKILVLDEATAAVDLETDSLIQTTIRKEFSQCTVITIAHRLHTIMDSDKIMVLDNGKIVEYGSPEELLSNRGSFYLMAKEAGIENVNHTEL
Km [3]: 3.7 µM
